Experimental data published in ChEMBL document CHEMBL1156046, “Amiodarone and its putative metabolites fail to activate wild type hTAAR1” (Bioorg Med Chem Lett, 2009).
Active and inactive are the calls of the source. The calls are words filed in the database; no cut-off is given here.

Tests used:
[1] = molecular target: T1, Trace amine-associated receptor 1 (Homo sapiens) (UniProt Q96RJ0); experiment: Activation of human TAAR1 expressed in CHOK1 cells assessed as cAMP accumulation at 10 uM relative to beta-phenethylamine; assay type: functional, cell-based; conditions: CHO-K1
T1 sequence (whole entry): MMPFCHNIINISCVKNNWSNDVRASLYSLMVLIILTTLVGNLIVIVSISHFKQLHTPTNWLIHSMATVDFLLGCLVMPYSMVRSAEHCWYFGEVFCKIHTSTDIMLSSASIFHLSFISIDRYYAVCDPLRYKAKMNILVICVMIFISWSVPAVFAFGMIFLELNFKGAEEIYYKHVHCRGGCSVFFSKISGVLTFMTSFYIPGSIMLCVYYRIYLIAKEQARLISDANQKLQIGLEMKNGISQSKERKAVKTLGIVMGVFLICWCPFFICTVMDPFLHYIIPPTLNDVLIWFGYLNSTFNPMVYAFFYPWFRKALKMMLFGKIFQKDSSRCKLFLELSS

[2] = molecular target: T1, Trace amine-associated receptor 1 (Homo sapiens); experiment: Activation of human TAAR1 expressed in CHOK1 cells assessed as cAMP accumulation at 0.1 to 1 uM; assay type: functional, cell-based; conditions: CHO-K1
[3] = molecular target: T1, Trace amine-associated receptor 1 (Homo sapiens); experiment: Activation of human TAAR1 expressed in CHOK1 cells coexpressing Galpha16 assessed as calcium accumulation at 0.1 to 1 uM relative to beta-phenethylamine; assay type: functional, cell-based; conditions: CHO-K1
[4] = molecular target: T2, Trace amine-associated receptor 1 (Homo sapiens, UniProt Q96RJ0); experiment: Activation of human TAAR1 expressed in CHOK1 cells coexpressing Galpha16 assessed as calcium accumulation; assay type: functional, cell-based, CHO-K1
T2 sequence (Q96RJ0 whole entry): T1 sequence (whole entry)

[5] = molecular target: T1, Trace amine-associated receptor 1 (Homo sapiens); experiment: Activation of human TAAR1 expressed in CHOK1 cells coexpressing Galpha16 assessed as calcium accumulation relative to control; assay type: functional, cell-based; conditions: CHO-K1
CHO [6] = experiment: Effect on calcium mobilization in CHO cells stably expressing Galpha16; assay type: functional, cell-based; conditions: Cricetulus griseus
CHO [7] = experiment: Effect on calcium mobilization in CHO cells stably expressing Galpha16 at 10 uM relative to beta-phenethylamine; assay type: functional, Cricetulus griseus

| SMILES | Activity [1] | Activity [2] | Activity [3] | other results |
| --- | --- | --- | --- | --- |
| CCCCc1oc2ccccc2c1C(=O)c1ccc(OCCN)cc1 |  | inactive | inactive |  |
| NCCOc1ccccc1 |  |  |  | EC50 [4]: 1790 nM; Emax [5]: 41% |
| CCCCc1oc2ccccc2c1C(=O)c1cc(I)c(OCCN(CC)CC)c(I)c1 |  | inactive |  | Activity (CHO [6]): inactive |
| CCCCc1oc2ccccc2c1C(=O)c1ccc(OCCN)c(I)c1 | < 5% | inactive | inactive |  |
| CCCCc1oc2ccccc2c1C(=O)c1cc(I)c(OCCN)c(I)c1 | < 5% | inactive | inactive |  |
| CCCCc1oc2ccccc2c1C(=O)c1cc(I)c(OCCNCC)c(I)c1 [DESETHYLAMIODARONE] |  | inactive | inactive | Activity (CHO [7]): 44% |
| CCCCc1oc2ccccc2c1C(=O)c1ccc(OCCNCC)c(I)c1 |  | inactive | inactive |  |

Now from value to compound, other results behind:

| Activity [1] | Activity [2] | Activity [3] | SMILES | other results |
| --- | --- | --- | --- | --- |
| < 5% | inactive | inactive | CCCCc1oc2ccccc2c1C(=O)c1ccc(OCCNCC)cc1 |  |
|  | inactive | inactive | CCCCc1oc2ccccc2c1C(=O)c1ccc(OCCN(CC)CC)cc1 |  |
|  | inactive | inactive | CCCCc1oc2ccccc2c1C(=O)c1ccc(OCCN(CC)CC)c(I)c1 |  |
